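Abbreviation: GI50, concentration required for 50% inhibition of growth. Definition used: TGI = concentration required for complete inhibition of growth.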
Tests used:
Test in all cases: DTP human tumour cell line panel, 384-well format
A498 renal = test system: A498 renal
UACC-257 melanoma = test system: UACC-257 melanoma
MOLT-4 leukemia = test system: MOLT-4 leukemia
UO-31 renal = test system: UO-31 renal
PC-3 prostate = test system: PC-3 prostate
HS 578T breast = test system: HS 578T breast
HCT-116 colon = test system: HCT-116 colon
OVCAR-4 ovarian = test system: OVCAR-4 ovarian
SR leukemia = test system: SR leukemia
NCI-H522 lung = test system: NCI-H522 lung
NCI-H322M lung = test system: NCI-H322M lung
MDA-MB-468 breast = test system: MDA-MB-468 breast
SK-OV-3 ovarian = test system: SK-OV-3 ovarian
K-562 leukemia = test system: K-562 leukemia
OVCAR-8 ovarian = test system: OVCAR-8 ovarian
RPMI-8226 leukemia = test system: RPMI-8226 leukemia
SK-MEL-5 melanoma = test system: SK-MEL-5 melanoma
OVCAR-5 ovarian = test system: OVCAR-5 ovarian
IGROV1 ovarian = test system: IGROV1 ovarian
TK-10 renal = test system: TK-10 renal
OVCAR-3 ovarian = test system: OVCAR-3 ovarian
NCI-H23 lung = test system: NCI-H23 lung
SF-268 CNS = test system: SF-268 CNS
MCF7 breast = test system: MCF7 breast
HL-60(TB) leukemia = test system: HL-60(TB) leukemia
CAKI-1 renal = test system: CAKI-1 renal
NCI/ADR-RES ovarian = test system: NCI/ADR-RES ovarian
SF-539 CNS = test system: SF-539 CNS
SF-295 CNS = test system: SF-295 CNS
UACC-62 melanoma = test system: UACC-62 melanoma
HT29 colon = test system: HT29 colon
LOX IMVI melanoma = test system: LOX IMVI melanoma
NCI-H460 NSCLC = test system: NCI-H460 NSCLC
SN12C renal = test system: SN12C renal
SK-MEL-2 melanoma = test system: SK-MEL-2 melanoma
786-0 renal = test system: 786-0 renal
MDA-MB-435 melanoma = test system: MDA-MB-435 melanoma
SK-MEL-28 melanoma = test system: SK-MEL-28 melanoma
M14 melanoma = test system: M14 melanoma
CCRF-CEM leukemia = test system: CCRF-CEM leukemia
EKVX NSCLC = test system: EKVX NSCLC
MALME-3M melanoma = test system: MALME-3M melanoma
HCC-2998 colon = test system: HCC-2998 colon
HOP-92 NSCLC = test system: HOP-92 NSCLC
SW-620 colon = test system: SW-620 colon
COLO 205 colon = test system: COLO 205 colon
ACHN renal = test system: ACHN renal

Work on `Cc1cc([C@H](C)Nc2nccc(N3C(=O)OC[C@@H]3[C@H](C)F)n2)ncc1-c1ccnc(C(F)(F)F)c1` yielded a GI50 (A498 renal) of 30.4 µM, a TGI (A498 renal) greater than 100 µM and a GI50 (UACC-257 melanoma) of 16.6 µM. For the same molecule, the TGI (UACC-257 melanoma) was 51.1 µM, the GI50 (MOLT-4 leukemia) was 12.5 µM and the TGI (MOLT-4 leukemia) was 25.3 µM. The GI50 (UO-31 renal) was 18.8 µM, the TGI (UO-31 renal) was greater than 100 µM and the GI50 (PC-3 prostate) was 27.7 µM. It also gave a TGI (PC-3 prostate) greater than 100 µM, a GI50 (HS 578T breast) of 16.1 µM and a TGI (HS 578T breast) greater than 100 µM. For the same molecule, the GI50 (HCT-116 colon) was 21 µM, the TGI (HCT-116 colon) was 96.7 µM and the GI50 (OVCAR-4 ovarian) was 29.6 µM. It also gave a TGI (OVCAR-4 ovarian) greater than 100 µM, a GI50 (SR leukemia) of 11.1 µM and a TGI (SR leukemia) of 25.4 µM. For the same molecule, the GI50 (NCI-H522 lung) was 13.5 µM, the TGI (NCI-H522 lung) was 58.7 µM and the GI50 (NCI-H322M lung) was 41.5 µM. It also gave a TGI (NCI-H322M lung) greater than 100 µM, a GI50 (MDA-MB-468 breast) of 4.43 µM and a TGI (MDA-MB-468 breast) of 24.5 µM. It also gave a GI50 (SK-OV-3 ovarian) of 41.7 µM, a TGI (SK-OV-3 ovarian) greater than 100 µM and a GI50 (K-562 leukemia) of 8.88 µM. For the same molecule, the TGI (K-562 leukemia) was greater than 100 µM, the GI50 (OVCAR-8 ovarian) was 31.6 µM and the TGI (OVCAR-8 ovarian) was greater than 100 µM. The GI50 (RPMI-8226 leukemia) was 7.2 µM, the TGI (RPMI-8226 leukemia) was 21.2 µM and the GI50 (SK-MEL-5 melanoma) was 10.2 µM. For the same molecule, the TGI (SK-MEL-5 melanoma) was 25.4 µM, the GI50 (OVCAR-5 ovarian) was 53.9 µM and the TGI (OVCAR-5 ovarian) was greater than 100 µM. The GI50 (IGROV1 ovarian) was 28.3 µM, the TGI (IGROV1 ovarian) was greater than 100 µM and the GI50 (TK-10 renal) was 27.8 µM. It also gave a TGI (TK-10 renal) greater than 100 µM, a GI50 (OVCAR-3 ovarian) of 22.2 µM and a TGI (OVCAR-3 ovarian) of 72.3 µM. It also gave a GI50 (NCI-H23 lung) of 8.03 µM, a TGI (NCI-H23 lung) greater than 100 µM and a GI50 (SF-268 CNS) of 68.6 µM. For the same molecule, the TGI (SF-268 CNS) was greater than 100 µM, the GI50 (MCF7 breast) was 25.8 µM and the TGI (MCF7 breast) was greater than 100 µM. It also gave a GI50 (HL-60(TB) leukemia) of 17.5 µM, a TGI (HL-60(TB) leukemia) of 31.3 µM and a GI50 (CAKI-1 renal) of 34.4 µM. The TGI (CAKI-1 renal) was greater than 100 µM, the GI50 (NCI/ADR-RES ovarian) was 16.2 µM and the TGI (NCI/ADR-RES ovarian) was 94.4 µM. For the same molecule, the GI50 (SF-539 CNS) was 96.3 µM, the TGI (SF-539 CNS) was greater than 100 µM and the GI50 (SF-295 CNS) was 33.5 µM. For the same molecule, the TGI (SF-295 CNS) was greater than 100 µM, the GI50 (UACC-62 melanoma) was 52.2 µM and the TGI (UACC-62 melanoma) was greater than 100 µM. For the same molecule, the GI50 (HT29 colon) was 31.7 µM, the TGI (HT29 colon) was greater than 100 µM and the GI50 (LOX IMVI melanoma) was 53.1 µM. The TGI (LOX IMVI melanoma) was greater than 100 µM, the GI50 (NCI-H460 NSCLC) was 37.1 µM and the TGI (NCI-H460 NSCLC) was greater than 100 µM. For the same molecule, the GI50 (SN12C renal) was 45.5 µM, the TGI (SN12C renal) was greater than 100 µM and the GI50 (SK-MEL-2 melanoma) was 82.9 µM. For the same molecule, the TGI (SK-MEL-2 melanoma) was greater than 100 µM, the GI50 ([…]-0 renal) was 31.3 µM and the TGI (786-0 renal) was greater than 100 µM. For the same molecule, the GI50 (MDA-MB-435 melanoma) was 52.7 µM, the TGI (MDA-MB-435 melanoma) was greater than 100 µM and the GI50 (SK-MEL-28 melanoma) was greater than 100 µM. It also gave a TGI (SK-MEL-28 melanoma) greater than 100 µM, a GI50 (M14 melanoma) of 86.2 µM and a TGI (M14 melanoma) greater than 100 µM. For the same molecule, the GI50 (CCRF-CEM leukemia) was 7.56 µM, the TGI (CCRF-CEM leukemia) was 31.5 µM and the GI50 (EKVX NSCLC) was 11.2 µM. It also gave a TGI (EKVX NSCLC) of 98.2 µM, a GI50 (MALME-3M melanoma) of 28.3 µM and a TGI (MALME-3M melanoma) greater than 100 µM. The GI50 (HCC-2998 colon) was 24.6 µM, the TGI (HCC-2998 colon) was greater than 100 µM and the GI50 (HOP-92 NSCLC) was 29.2 µM. For the same molecule, the TGI (HOP-92 NSCLC) was greater than 100 µM, the GI50 (SW-620 colon) was 61 µM and the TGI (SW-620 colon) was greater than 100 µM. For the same molecule, the GI50 (COLO 205 colon) was 64.1 µM, the TGI (COLO 205 colon) was greater than 100 µM and the GI50 (ACHN renal) was 40.2 µM. It also gave a TGI (ACHN renal) greater than 100 µM.
